# Test results from US12642870B2, “Compositions and methods for delivery of nucleic acids” (Poseida Therapeutics, Inc., priority 2020, dated 2026).
# Tests used:
# [1] = Average diameter of lipoplex nanoparticles comprising eGFP mRNA (DLS or NTA); type: physicochemical; conditions: lipoplex nanoparticles comprising eGFP mRNA and COMPOUND 1, both methods
# Method: Lipoplex nanoparticles were formulated using solvent injection method. In brief, a multivalent cationic bolaform amphiphilic lipid (4.0 mg) was dissolved in dimethyl sulfoxide (1 mL) to obtain 4 mg/mL solution. The solution was heated for 15 min at 40° C. to dissolve the lipid. DNA or mRNA (0.040 mg) was diluted with 50 mM Sodium acetate buffer (2 mL, pH 5.5) to obtained 0.02 mg/mL solution. Bolamphiphile lipid solution (0.4 mg, 100 p1) was injected in DNA or mRNA solution (0.04 mg, 2 mL) under constant sonication. The mass ratio of […] was kept constant to 10 for all the bolamphiphile formulation. The sonication was continued for 5 min. The solution was dialyzed (MWCO 30 kDa) for 4-6 hours in PBS (1×, pH 7.4) at room temperature. Sample was concentrated using Amicon centrifuge tube (30 kDa) to get the desired concentration for subsequent in vivo or in vitro use.
# Lipoplex nanoparticles were prepared comprising mRNA encoding eGFP using COMPOUND 1 according to the method above and the average diameter of the resulting nanoparticles was determined by DLS or NTA. Both methods yielded average diameters of about 120 nm and the presence of RNA in the nanoparticle was confirmed by gel electrophoresis as described in Example 3.
# [2] = Physical characterisation of mRNA-containing LNPs (DLS, NTA, zeta potential); type: physicochemical; conditions: Fluc mRNA LNPs: compound/DOPE/Cholesterol/DMG-PEG2000 41.44/45.85/10/2.7, lipid:RNA 40:1 (w/w)
# Method: A series of ten multi-component LNP compositions of the present disclosure comprising exemplary compounds of Formula (I) was prepared by combining various percentages of an exemplary compound of Formula (I), the phospholipid DOPE, the structural lipid cholesterol (Chol) and 1,2-dimyristoyl-sn-glycerol methoxypolyethylene glycol (DMG-PEG2000; Avanti Polar Lipids, Alabaster, Alabama, USA).
# Individual 25 mg/ml stock solutions were prepared by solubilizing the lipids in 200-proof HPLC-grade ethanol and stock solutions were stored at −80° C. until formulated. At the time of formulation, the lipid stock solutions were briefly allowed to equilibrate to room temp and then placed on a hot plate maintained at a temperature range of 50-55° C.
# A 1 mg/mi solution of the desired mRNA to be incorporated into the LNPs was added to 150 mM sodium acetate buffer (pH 5.2) to form a stock solution and kept on ice. The lipid phase was mixed with the aqueous m RNA phase inside a microfluidic chip using a NanoAssemblr® instrument (Precision Nanosystems, Vancouver, BC, Canada) according to the manufacturer's instructions to form LNP compositions comprising encapsulated mRNAs.
# The resultant mRNA LNP compositions were then transferred to a Repligen Float-A-Lyzer dialysis device—having a molecular weight cut off (MWCO) of 8-10 kDa (Spectrum Chemical Mfg. Corp, CA, USA) and processed by dialysis against phosphate buffered saline (PBS) (dialysate:dialysis buffer volume at least 1:200 v/v), pH 7.4 overnight at 4° C. (or alternatively room temperature for at least 4 hours), to remove the 25% ethanol and achieve a complete buffer exchange. In some experiments the LNPs were further concentrated by in an Amicon® Ultra-4 centrifugal filter unit, MWCO-30 kDa (Millipore Sigma, USA) spun at ˜4100×g in an ultracentrifuge. The mRNA LNPs were then stored at 4° C. until further use.
# A series of multicomponent LNP compositions comprising one of COMPOUNDS 1-8 described in Example 1 and the mRNA encoding flue was prepared according to Example 2 and the physical characteristics of the resulting LNPs were analyzed.
# In a separate experiment, LNP compositions of the present disclosure comprising mRNA encoding firefly luciferase (hereafter “Fluc”; TriLink) and COMPOUNDS 1-8 were prepared as described in Example 2 by combining one of COMPOUNDS 1-8, the phospholipid DOPE, the structural lipid cholesterol (Chol) and 1,2-dimyristoyl-sn-glycerol methoxypolyethylene glycol (DMG-PEG2000) in the percentages presented in Table 8: […]
# [3] = system: HEK293T cells; assay: In vitro lipoplex nanoparticle delivery of eGFP mRNA to adherent cells; type: cell-based
# Method: HEK293T cells were seeded in 96 well plates and grown to 70% confluence in [DMEM+10% FBS under a 5% CO2 atmosphere at 37° C. Lipoplex nanoparticles comprising COMPOUND 1 and 0.007, 0.03, 0.125, and 0.50 μg mRNA encoding eGFP were added to the cells. Following incubation with the lipoplex nanoparticles, cells were assessed for GFP expression by epifluorescence microscopy and flow cytometry.
# [4] = Physical characterisation of DNA-containing LNPs (DLS, NTA, zeta potential); type: physicochemical; conditions: nano-pB-EF1a-GFP DNA LNPs: compound/DOPE/Cholesterol/DMG-PEG2000 38.0/50.0/10.0/2.0, lipid:DNA 45:1 (w/w)
# Method: LNP compositions of the present disclosure comprising DNA, a nanoplasmid encoding a piggyBac transposon, wherein the piggyBac transposon comprised GFP under control of the EF1a promoter (herein referred to as the nano-pB-EF1a-GFP), and one of COMPOUNDS 1-8 were prepared as described in Example 3 by combining one of COMPOUNDS 1-8, the phospholipid DOPE, the structural lipid cholesterol (Chol) and 1,2-dimyristoyl-sn-glycerol methoxypolyethylene glycol (DMG-PEG2000) in the following percentages in Table 20: […]
# [5] = system: Resting T-cells; assay: LNP delivery of eGFP mRNA to resting T-cells; type: cell-based; conditions: eGFP mRNA LNPs 0.4144:0.4585:0.1:0.027, lipid:nucleic acid 40:1, 0.5 ug mRNA per well, 24 hrs
# Method: In one experiment, LNPs of the present disclosure comprising one of COMPOUNDS 1-4, DOPE, Cholesterol and DMG-PEG2000 at a molar ratio of 0.4144:0.4585:0.1:0.027 and further comprising Cleancap mRNA encoding eGFP were formed on a NanoAssemblr® (Precision Nanosystems). […] Resting T-cells were treated with varying amounts of the four LNP composition and at 24 hrs, the cells were analyzed to determine the percentage of cells that were viable and that expressed […]. The results of the analysis are shown in Table 12 for a dose of 0.5 ug mRNA per well.
# [6] = system: Resting T-cells; assay: LNP delivery of nano-pB-EF1a-GFP DNA to resting T-cells; type: cell-based; conditions: nano-pB-EF1a-GFP DNA LNPs 0.38:0.5:0.1:0.02, lipid:nucleic acid 45:1, 24 hr
# Text: The experiments described in this example used CD4/CD8 positive T-cells isolated from a leukapheresis product from a healthy donor.
# [7] = system: HEK293T cells; assay: In vitro LNP delivery of eGFP mRNA to adherent cells; type: cell-based; conditions: 0.125 μg eGFP mRNA per well, 24 hr, flow cytometry, LNP 41.44/45.85/10.0/2.7, lipid:RNA 40:1
# Method: HEK293T cells were seeded in 96 well plates and grown to 70% confluence in DMEM+10% FBS] under a 5% CO2 atmosphere at 37° C. A 0.125 μg amount of 5′-CleanCap-eGFP mRNA (TriLink Biotech) formulated with LNP compositions comprising COMPOUNDS 1-4 as prepared in Example 3 at the following percentages in Table 10 was added to each well.
# After incubating for 24 hr, cells were imaged for GFP expression with a Leica fluorescence microscope and then detached from 96 well plate to quantitate expression by flow cytometry.
# [8] = Agarose gel electrophoresis for nucleic acid incorporation; type: physicochemical; conditions: 1% agarose gel, SYBR Safe, naked mRNA control
# Method: The LNP compositions were analyzed to verify the presence of mRNA. An aliquot of each of the LNP compositions was loaded on to a 1% agarose gel with a size standard and naked mRNA control, subject to electrophoresis and the presence of mRNA was detected by exposure of ultraviolet light to excite the fluorophore (SYBR Safe) which is complexed with nucleic acid. The free mRNA migrated in the gel in accordance with its molecular weight whereas all of the mRNA-containing LNP compositions remained at the interface of the agarose gel and the well with little to no detectable free mRNA indicating the LNP compositions comprising COMPOUND 1 of Example 1 were capable of incorporating mRNA.
smiles,measurement,setting,value
CC(C)C(CCC(C)C(CCC1CCC(C(=O)NCCCCCCNC(=O)C2CCC(CCC(SCCN(C)C)C(C)CCC(SCCN(C)C)C(C)C)C(SCCN(C)C)C2)CC1SCCN(C)C)SCCN(C)C)SCCN(C)C (stereo not shown) [Compound 1],average diameter of lipoplex nanoparticles,[1],about 120 nm
same,Diameter (DLS; nm),[2],155.1 nm
same,Diameter (NTA; nm),[2],126.5 nm
same,PDI,[2],0.174
same,Total Particles/ml,[2],1.66E+11 Particles/ml
same,Zeta Potential (mV),[2],1.41 mV
same,% GFP,"[3]; lipoplex nanoparticles comprising COMPOUND 1, 0.007 μg mRNA",0.99%
same,% GFP,"[3]; lipoplex nanoparticles comprising COMPOUND 1, 0.03 μg mRNA",7.37%
same,% GFP,"[3]; lipoplex nanoparticles comprising COMPOUND 1, 0.125 μg mRNA",30.1%
same,% GFP,"[3]; lipoplex nanoparticles comprising COMPOUND 1, 0.50 μg mRNA",56.1%
same,Diameter (DLS; nm),[4],123.5 nm
same,Diameter (NTA; nm),[4],96.9 nm
same,PDI,[4],0.17
same,Total Particles/ml,[4],5.76E+11 Particles/ml
same,Zeta Potential (mV),[4],0.67 mV
same,% Viable GFP+,[5],9.5%
same,% Viable GFP+,[6],35.2%
same,% Viable GFP+,[7],23.5%
same,incorporation of mRNA into the nanoparticle compositions by gel electrophoresis,[8],confirmed
